{"source": "patent US11576900B2", "about": "“Compositions and methods of reducing serum cholesterol and PCSK9” (CASE WESTERN RESERVE UNIVERSITY, priority 2017, dated 2023)", "key": {"[1]": {"assay": "Cholesterol fractionation in C57BL6J mice on in-diet imirestat", "type": "in vivo", "details": "C57BL6J 24 week old male mice, 4 weeks in-diet Imirestat; FIG. 7", "experimental": "(§1) AKR1A1^−/− mice were generated by Deltagen, Inc. C57BL6/J and ApoE^−/− mice were purchased from The Jackson Laboratory. CETP-ApoB100 transgenic mice were purchased from Taconic Biosciences. All mice were maintained under a 12-hour light/dark cycle. For imirestat treatment studies, mice were provided control chow or chow containing 0.0125% w/w imirestat (125 mg imirestat/1 kg chow) ad libitum. C57BL6/J and ApoE^−/− mice were provided control chow or imirestat chow for 4 weeks starting at age 20 weeks; CETP-ApoB100 transgenic mice were provided control chow or imirestat chow for 8 weeks starting at age 10 weeks.\n(§2) Prior to euthanasia, mice were fasted for the indicated length of time. […] Collected blood was allowed to coagulate for 20 minutes at room temperature in a pediatric serum separator tube. Serum was separated by centrifugation at 2000 g for 20 minutes at 4° C. […]\n(§3) Total serum cholesterol was determined by standard enzymatic assays. For lipoprotein cholesterol quantification, lipoprotein fractions were separated by gel filtration column chromatography. Approximately 70 fractions were collected and cholesterol in each fraction was quantified by standard enzymatic assays. Calibration of the column with purified lipoprotein fractions permitted quantification of cholesterol in various lipoprotein classes. Serum PCSK9 was quantified by solid phase sandwich ELISA."}, "[2]": {"assay": "Total serum cholesterol in CETP/ApoB100 transgenic mice on in-diet imirestat", "type": "in vivo", "details": "CETP/ApoB100 transgenic male mice, FIG. 13", "experimental": "AKR1A1^−/− mice were generated by Deltagen, Inc. C57BL6/J and ApoE^−/− mice were purchased from The Jackson Laboratory. CETP-ApoB100 transgenic mice were purchased from Taconic Biosciences. All mice were maintained under a 12-hour light/dark cycle. For imirestat treatment studies, mice were provided control chow or chow containing 0.0125% w/w imirestat (125 mg imirestat/1 kg chow) ad libitum. […]\nas §2, with “C. Serum was stored at −80° C. until analysis. For overnight fasted 12-week-old AKR1A1^−/− mice (FIG. 5), whole blood was provided to University Hospitals' Clinical Laboratory (Cleveland, Ohio) for cholesterol analysis.” for “C.”\nas §3"}, "[3]": {"assay": "Total serum cholesterol in ApoE deficient mice on in-diet imirestat", "type": "in vivo", "details": "ApoE deficient 24 week old male mice, 4 weeks in-diet Imirestat; FIG. 10", "experimental": "as §1, §2, §3"}, "human AKR1A1": {"biological_target": "T1, human AKR1A1 (Homo sapiens, UniProt P14550)", "T1 construct": "His; made in house; host or cells: Rosetta2(DE3)pLysS E. coli", "T1 sequence (P14550 1-325)": "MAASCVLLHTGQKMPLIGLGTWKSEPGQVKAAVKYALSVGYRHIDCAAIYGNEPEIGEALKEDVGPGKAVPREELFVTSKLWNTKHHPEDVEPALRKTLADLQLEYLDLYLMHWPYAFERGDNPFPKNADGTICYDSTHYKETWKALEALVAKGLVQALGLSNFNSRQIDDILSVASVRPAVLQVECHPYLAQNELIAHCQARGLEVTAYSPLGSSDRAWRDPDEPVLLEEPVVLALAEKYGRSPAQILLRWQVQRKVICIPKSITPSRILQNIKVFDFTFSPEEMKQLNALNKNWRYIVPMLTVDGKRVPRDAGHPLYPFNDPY", "assay": "AKR1A1 SNO-CoA reductase activity assay (recombinant enzyme)", "type": "biochemical", "details": "200 nM recombinant AKR1A1, 100 μM NADPH, 100 μM SNO-CoA; FIG. 5; read-out: IC50 for inhibition of AKR1A1 SNO-CoA Reductase Activity", "experimental": "The human AKR1A1 coding sequence was cloned into a pET21b bacterial expression vector. pET21b-AKR1A1 was transformed into Rosetta2(DE3)pLysS E. coli and expression was induced by the addition of 100 μM isopropyl-β-D-1-thiogalactopyranoside at A600nm=0.4. Bacteria were grown for 4 hours at 25° C. and recombinant His-tagged SCoR was purified via Ni-affinity purification. Triplicate reactions were performed with 200 nM recombinant AKR1A1, 100 μM NADPH, 100 μM SNO-CoA, and increasing concentrations of imirestat dissolved in dimethyl sulfoxide (DMSO). SNO-CoA was prepared by reacting equal volumes of 0.1M CoA in 1M HCl and 0.1M NaNO2 water containing 100 μM EDTA and 100 μM DTPA. Initial rates were calculated using absorbance decrease at 340 nm. IC50 was calculated in GraphPad Prism 7 using non-linear regression analysis. For AKR1A1 liver activity following in-diet imirestat treatment, frozen liver tissue was dounce homogenized (30 dounces) in 50 mM phosphate buffer, pH 7.0 supplemented with 100 μM ethylenediaminetetraacetic acid (EDTA) and diethylenetriamine pentaacetate (DTPA) and 150 mM sodium chloride. […] Reactions were initiated by the addition of liver lysate and specific activity was calculated from the change in absorbance at 340 nm, protein concentration, and an extinction coefficient of 7.06 mM^−1·cm^−1 (combined for SNO-CoA and NADPH)."}, "[4]": {"assay": "Total serum cholesterol in C57BL6J mice on in-diet imirestat", "type": "in vivo", "details": "C57BL6J 24 week old male mice, 4 weeks in-diet Imirestat (0.0125% w/w chow); FIG. 6", "experimental": "as §1, §2, §3"}, "[5]": {"assay": "Cholesterol fractionation in ApoE deficient mice on in-diet imirestat", "type": "in vivo", "details": "ApoE deficient 24 week old male mice, 4 weeks in-diet Imirestat; FIG. 11", "experimental": "as §1, §2, §3"}, "PCSK9 [6]": {"tested_on": "PCSK9", "assay": "Serum PCSK9 levels in C57BL6J mice on in-diet imirestat (ELISA)", "type": "in vivo", "details": "C57BL6J 24 week old male mice, 4 weeks in-diet Imirestat; FIG. 8", "experimental": "as §1, §2, §3"}, "AKR1A1": {"biological_target": "T2, AKR1A1 (Mus musculus, UniProt Q9JII6)", "T2 construct": "For AKR1A1 liver activity following in-diet imirestat treatment, frozen liver tissue was dounce homogenized; from tissue; host or cells: liver of C57BL6/J mice (clarified lysate)", "T2 sequence (Q9JII6 1-325)": "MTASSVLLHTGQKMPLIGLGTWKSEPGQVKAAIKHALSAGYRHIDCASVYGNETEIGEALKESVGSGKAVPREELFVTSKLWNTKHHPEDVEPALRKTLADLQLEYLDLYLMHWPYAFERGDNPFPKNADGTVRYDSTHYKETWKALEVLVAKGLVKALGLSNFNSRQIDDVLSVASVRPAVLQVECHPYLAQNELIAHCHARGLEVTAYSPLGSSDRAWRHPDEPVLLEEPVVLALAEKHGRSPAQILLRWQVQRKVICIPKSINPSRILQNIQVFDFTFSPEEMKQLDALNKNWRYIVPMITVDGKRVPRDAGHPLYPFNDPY", "assay": "SNO-CoA reductase activity in liver lysate of C57BL6J mice after in-diet imirestat", "type": "in vivo", "details": "C57BL6J 24 week old male mice, 4 weeks in-diet Imirestat; FIG. 9", "experimental": "as §1\nPrior to euthanasia, mice were fasted for the indicated length of time. […]\nThe human AKR1A1 coding sequence was cloned into a pET21b bacterial expression vector. pET21b-AKR1A1 was transformed into Rosetta2(DE3)pLysS E. coli and expression was induced by the addition of 100 μM isopropyl-β-D-1-thiogalactopyranoside at A600nm=0.4. […] Initial rates were calculated using absorbance decrease at 340 nm. IC50 was calculated in GraphPad Prism 7 using non-linear regression analysis. […] Reactions were initiated by the addition of liver lysate and specific activity was calculated from the change in absorbance at 340 nm, protein concentration, and an extinction coefficient of 7.06 mM^−1·cm^−1 (combined for SNO-CoA and NADPH)."}, "PCSK9 [7]": {"tested_on": "PCSK9", "assay": "Serum PCSK9 levels in ApoE deficient mice on in-diet imirestat (ELISA)", "type": "in vivo", "details": "ApoE deficient 24 week old male mice, 4 weeks in-diet Imirestat; FIG. 12", "experimental": "as §1, §2, §3"}}}
{"compound": "O=C1NC(=O)C2(N1)c1cc(F)ccc1-c1ccc(F)cc12", "note": "[Imirestat, 2,7-Difluoro-2′H,5′H-spiro[fluorene-9,4′-imidazolidine]-2′,5′-dione]", "values": [{"measurement": "cholesterol fractionation vs control", "setting": "[1]", "result": "reduced total serum cholesterol"}, {"measurement": "total serum cholesterol vs control", "setting": "[2]", "result": "lower total serum cholesterol"}, {"measurement": "total serum cholesterol vs control", "setting": "[3]", "result": "lower total serum cholesterol"}, {"measurement": "IC50", "setting": "human AKR1A1", "result": "~120", "unit": "nM"}, {"measurement": "total serum cholesterol vs control", "setting": "[4]", "result": "lower total serum cholesterol"}, {"measurement": "cholesterol fractionation vs control", "setting": "[5]", "result": "reduced total serum cholesterol"}, {"measurement": "serum PCSK9 levels vs control", "setting": "PCSK9 [6]", "result": "lower total serum PCSK9 levels"}, {"measurement": "SNO-CoA Reductase activity in liver (AKR1A1 liver activity) vs control", "setting": "AKR1A1", "result": "lower AKR1A1 liver activity"}, {"measurement": "serum PCSK9 levels vs control", "setting": "PCSK9 [7]", "result": "lower total serum PCSK9 levels"}]}
